{
  "source": "paper PMC6934184",
  "about": "“Selective DNA-PKcs inhibition extends the therapeutic index of localized radiotherapy and chemotherapy” (The Journal of Clinical Investigation, 2019)",
  "test_system": "FLT3 ITD",
  "assay": "SelectScreen LanthaScreen",
  "assay_type": "binding",
  "settings": "1 µM",
  "procedure,_shortened": "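NU5455 was profiled across the SelectScreen Broad panel of kinase activity and binding assays. Z'LYTE reactions such as CSF1R ran at apparent Km ATP, while the Adapta CAMK1 assay used ATP listed as 10. Values are given as percent.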",
  "data": [
    {"smiles": "CN(C(=O)CN1CCOCC1)c1ccc2sc3c(-c4cccc5c(=O)cc(N6CC7CCC(C6)O7)oc45)cccc3c2c1", "note": "[NU5455]", "values": [
      {"measurement": "% displacement", "value": -11.6, "unit": "%"}
    ]}
  ]
}
